Experimental data published in patent US10912752B2, “Methods and compositions for reducing ocular discomfort” (Brien Holden Vision Institute Limited, priority 2012, dated 2021).

Columns and labels:
[1] = test system: HCLE cells; test: Flow cytometry cell volume (shrunken cells) under hyperosmotic stress; format: cell-based, human; details: 16 h; for population of shrunken cells: 500 mOsm + 10 mM, flow cytometry
From the text: Forward scatter of the laser light produced by the flow cytometer is proportional to the volume of the cell. This principle was used to analyse the osmoprotective effect of betaine in restoring the cell volume which is adversely affected due to hypertonicity. Cell populations were gated such that the population of cells showing a greater forward scatter (FSC) constituted the percentage of cells with a volume equal to that of a cell under isotonic conditions. On the other hand, the proportion of side scatter in a flow cytometer represents the cell structure complexity and granularity. […] Cells were exposed to isotonic media (300 mOsM), hyperosmotic media (500 mOsM) and hyperosmotic media containing betaine (500 mOsM media+10 mM betaine) for 16 h after which they were analysed using flow cytometer.
Cell volume and Live/Dead staining via flow cytometry were performed using the Attune® Acoustic focusing Cytometer (Life Technologies™ Applied Biosystems). Annexin V and PI kit (Invitrogen™) was used to analyse the non-apoptotic, and the early and late apoptotic cells. Staining was performed as per manufacturer's instructions. Analysis of Annexin staining was conducted using the blue/violet laser with excitation/emission spectra of 480/500 nm (20 mW) and the PI staining analysis was conducted using blue/red laser with an excitation/emission spectra of 490/635 nm.
Cultured HCLE cells were exposed to culture medium with or without carnitine (10 mM) at 300 mOsm (isotonic) and 500 mOsm (hyperosmotic) for 16 h. Flow cytometry was performed to determine the cell volume changes based on the forward and side scatter values detected.

[2] = test system: HCLE cells; test: MTT mitochondrial activity after hyperosmolar medium; format: cell-based, human; details: 5 or 10 mM, 500 mOsm, 16 h, vs hyperosmotic control
Protocol: (§1) 500 mOsm and exposure time (16 h) to be the most informative under which to observe hyperosmolality induced cellular responses of HCLE (results not shown). Thus, in the present study, a hyperosmotic medium of 500 mOsm and exposure time of 16 h were used throughout. Hyperosmolar media were prepared by the addition of NaCl to the medium. Medium osmolarity was measured using a Vapro 5520 vapour pressure osmometer (Wescor, Logan, Utah). Subconfluent cells were exposed to hyperosmolar media in the presence or absence of betaine (5 or 10 mM). Mitochondrial and proliferation activities for cell viability; TNF-α production; caspase activity and Annexin V/PI staining for apoptosis; and cellular shrinkage were monitored as detailed below.
(§2) MTT viability assay kit was used to measure cell viability (above). CyQUANT cell proliferation assay kit (Invitrogen-Molecular probe, Eugene, Oreg.) was used to determine the cell number. Culture supernatants were removed and centrifuged at 1500 rpm for 10 min to harvest any detached cells from the supernatant. Remaining cells were rinsed once with PBS. […] Fluorescence, indicating cell viability, was measured using SpectraFluor Plus microplate reader (Tecan, Männedorf, Switzerland); 485 nm for excitation and 535 nm for emission maxima.

[3] = test system: HCLE cells; test: Annexin V/PI/Hoechst staining, confocal microscopy, damaged cells; format: cell-based, human; details: 500 mOsm + 10 mM, 16 h
Protocol: Cells undergoing apoptosis or necrosis were identified using Alexa Fluor 488 annexin V/Dead cell apoptosis assay (Invitrogen-Molecular probe) with some modifications. Cells were seeded at 6.5×10^4 cells mL^−1 in 75 cm^2 cell culture flask and incubated overnight. Once the cells reached 70%-80% confluence, they were subjected to different osmolarity treatments for 16 hours. Supernatants were removed and retained for collection of non-adherent cells. Adherent cells were rinsed twice with PBS and detached using 0.05% trypsin. The culture supernatant and trypsin digests were pelleted, rinsed twice in PBS, and combined during resuspenison in annexin-binding buffer. Five microlitres of Alexa Fluor 488 annexin V, 12.5 μg mL^−1 of Hoechst 33342 and 1 μg mL^−1 of propidium iodide (PI) were added to 100 μL of cell suspension containing approximately 1×10^5 cells and incubated at room temperature for 15 minutes. Cells were washed with 200 μL of annexin-binding buffer and deposited onto coverslips. […] Cells stained with annexin V, PI or Hoechst for apoptotic, necrotic or total cells, respectively, were quantified for each image using ImageJ (http://rsbweb.nih.gov/ij/; National Institutes of Health, Bethesda, Md.) to obtain an average value for each treatment.

[4] = test system: HCLE cells; test: CyQUANT cell number after hyperosmolar medium; format: cell-based, human; details: 5 or 10 mM, 500 mOsm, 16 h, vs hyperosmotic control
Protocol: as §1, §2

[5] = Effect on final osmolarity of culture medium (vapour pressure osmometer); format: physicochemical; details: up to 10 mM; results not shown
Protocol: as §1

[6] = test system: human corneal epithelial cell; test: Evaporative drying culture model, Annexin V/PI apoptotic/necrotic cells; format: cell-based; details: 0.25% in culture medium, 4 hrs evaporative drying, 34° C.
Protocol: A in vitro human corneal epithelial cell culture model was used where cells were cultured under a slow drying condition with the culture medium slowly evaporated over the time period of 4-4.5 hours at 34° C. (the temperature of human eyes) to mimic tear film evaporation.

SMILES | percentage of healthy (normal volume) cells ([1]; 500 mOsm + 10 mM vs 500 mOsm) | population of shrunken cells [1] | increase in mitochondrial activity [2] | percentage of damaged cells (of the total cells) [3] | increase in cell numbers [4] | effect on the final osmolarity of the medium [5] | population of shrunken cells ([1]; listed as L-Carnitine) | cellular damage (apoptotic and necrotic cells) caused by evaporation-increased osmolarity [6]
C[N+](C)(C)CC(=O)[O-] [betaine, trimethylglycine] | significantly increased | 11.01% | 17% | 7.5% | 12% | minimal effect | – | –
C[N+](C)(C)CC(O)CC(=O)[O-] (stereo not drawn) [carnitine, 3-hydroxy-4-(trimethylazaniumyl)butanoate] | – | ~15% | – | – | – | – | 18.01% | minimised the cellular damage
